# According to PubChem BioAssay AID652213 (The Scripps Research Institute Molecular Screening Center, 2013):
# Activity calls are given as the source filed them. No rule for the calls is given here.
# Target: Serine/threonine-protein phosphatase PP1-alpha catalytic subunit (Homo sapiens) (UniProt P62136)
# Test: PP1 inhibitors, OMFP dephosphorylation, late-stage follow-up, biochemical, fluorescence, OMFP substrate, set 3 (AID 652213)
# Details: purified PP1, OMFP dephosphorylation, at 6.7 µM (top of the series)
# Serine/threonine-protein phosphatase PP1-alpha catalytic subunit (Homo sapiens), sequence (P62136 whole entry, looked up): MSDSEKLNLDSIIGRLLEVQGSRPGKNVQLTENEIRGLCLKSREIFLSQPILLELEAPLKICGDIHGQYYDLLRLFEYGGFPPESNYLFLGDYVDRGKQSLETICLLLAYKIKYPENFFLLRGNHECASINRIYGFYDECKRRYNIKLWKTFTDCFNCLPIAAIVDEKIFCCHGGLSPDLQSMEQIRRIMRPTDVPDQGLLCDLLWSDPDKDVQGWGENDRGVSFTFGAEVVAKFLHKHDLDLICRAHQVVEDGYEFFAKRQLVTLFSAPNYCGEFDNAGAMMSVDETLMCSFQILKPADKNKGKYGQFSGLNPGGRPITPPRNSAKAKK
row,Compound,activity
1,Nc1cc2nsnc2cc1Br,-10.1% (inactive)
2,COc1cnc(-c2ccccn2)nc1Sc1ccccc1,64.9%
3,COc1cnc(-c2ccccn2)nc1Sc1ccccc1Cl,68.7%
4,COc1cnc(-c2ccccn2)nc1Sc1ccc(Cl)cc1,54.6%
5,CCCN(CC1CC1)c1nc(N)c2c(N)nc(OC)cc2c1C#N,0.2% (inactive)
6,Oc1cccc(/C=N/Nc2cc(N3CCCC3)nc(N3CCCC3)n2)c1,18.5% (inactive)
7,CCOC(=O)c1cnc(-n2nc(C)cc2C)nc1NC1CCCCC1,59.7%
8,N#Cc1c(N2CCCC(O)C2)nc(N)c2c(N)nc3c(c12)CC(=O)N3C12CC3CC(CC(C3)C1)C2 (centres undefined),5.14% (inactive)
9,CCOC(=O)c1cnc(-n2cc(C)cn2)nc1NCc1ccc2c(c1)OCO2,16.5% (inactive)
10,CCCCn1c(NC(=O)c2ccco2)c(C(=O)OCC)c2nc3ccccc3nc21,-8.57% (inactive)
11,COc1ccc2c(Cl)c(C(=O)N/N=C/c3ccc4c(c3)OCO4)sc2c1,20.2% (inactive)
12,Clc1ccc(-n2nnnc2-c2cnc(-c3ccccn3)nc2-c2cccs2)cc1,66.6%
13,c1ccc(-c2nccc(-c3ccc(-n4cnc5ccccc54)cc3)n2)nc1,62.4%
14,CC(C)(CS(=O)(=O)[O-])NC(=O)CC[N+](C)(C)CCO,49.7%
15,O=C(O)c1cc(-c2ccc(Cl)c(Cl)c2)n(-c2ccc(F)cc2)n1,57.7%
16,CCOc1ccc(NC(=S)Nc2ccc3nsnc3c2)cc1,2.39% (inactive)
17,Cc1ccc(C(=O)NC2(O)C(=O)c3ccccc3C2=O)cc1C,1.19% (inactive)
18,O=C(O)c1cc(-c2ccc(Cl)c(Cl)c2)n(-c2ccccc2)n1,59.9%
19,COc1ccccc1Sc1nc(-c2ccccn2)ncc1OC,63.1%
20,CCn1c2ccccc2c2cc(NC(=O)COC(=O)c3ccc(NC(=O)CC#N)cc3)ccc21,49%
21,CCOC(=O)c1cnc(-n2nc(C)cc2C)nc1NC(C)c1ccccc1 (centres undefined),69.4%
22,CCOC(=O)c1sc(N2C(=O)C(O)=C(C(=O)c3ccco3)C2c2cccc([N+](=O)[O-])c2)nc1C (centres undefined),26.6%

row,Compound,activity
1,COc1ccc(Cl)cc1C(=O)Nc1cccc(-c2ccc3nncn3n2)c1,56.6%
2,COc1ccc(Sc2nc(-c3ccccn3)ncc2OC)cc1,72.4%
3,Cc1[nH]n(-c2ccccc2)c(=O)c1C(c1ccc([N+](=O)[O-])cc1)c1c(C)[nH]n(-c2ccccc2)c1=O,-6.69% (inactive)
4,O=C(NC1(O)C(=O)c2ccccc2C1=O)c1c(Cl)cccc1Cl,-3.06% (inactive)
5,COc1ccc(Cn2c(N)c(C(=O)NCc3ccco3)c3nc4ccccc4nc32)cc1OC,3.93% (inactive)
6,CCOC(=O)c1cnc(-n2nc(C)cc2C)nc1NCc1ccccc1,62.5%
7,CCOC(=O)C1=C(C)OC2(O)c3ccccc3C(=O)C12O (centres undefined),27.1% (inactive)
8,O=C(O)C1C2CCC(O2)C1C(=O)NC1CCCCC1 (centres undefined),26.2% (inactive)
9,COc1ccc(NC(=O)C2C3CCC(O3)C2C(=O)O)c(OC)c1 (centres undefined),35.3%
10,CCOC(=O)c1nn(-c2ccc(C)cc2)c(=O)c2c(N)scc12,4.75% (inactive)
11,Cc1nnc(NC(=O)C2C3C=CC(O3)C2C(=O)O)s1 (centres undefined),2.61% (inactive)
12,O=C1Nc2ccccc2N2CCCC12 (centres undefined),-7.49% (inactive)
13,N#Cc1c(-c2ccc(Cl)cc2)cc(-c2cccs2)nc1SCC(=O)O,45.4%
14,O=c1[nH]c(Nc2ccccc2)cc2ccccc12,4.07% (inactive)
15,O=C(O)c1cc(-c2ccc(Cl)cc2)n(-c2cccc(Cl)c2)n1,55.6%
16,Cc1ccc(C(=O)NNc2cc(N3CCCC3)nc(N3CCCC3)n2)cc1,4.62% (inactive)
17,CCCCN(CC)c1nc(N)c2c(N)nc(OCC)cc2c1C#N,4.31% (inactive)
18,COc1ccc(NC(=S)Nc2ccc3nsnc3c2)cc1,-1.36% (inactive)
19,COc1ccc(OCCCC(=O)Nc2nc(-c3ccccn3)cs2)cc1,26.8%
20,Cc1cc(C)c(S(=O)(=O)/N=C2\C=C(Sc3ncn[nH]3)C(=O)c3ccccc32)cc1C,5.84% (inactive)
21,CCOC(=O)c1cnc(-n2nc(C)cc2C)nc1NCCc1ccccc1,68.3%
22,Oc1ccccc1/C=N/Nc1cc(N2CCCC2)nc(N2CCCC2)n1,4.03% (inactive)

row,Compound,activity
1,COc1cnc(-c2ccccn2)nc1Sc1cccc(Cl)c1,64.1%
2,COc1cnc(-c2ccccn2)nc1Sc1ccc(C)cc1,62.9%
3,O=S(=O)(Cc1cc(NCc2ccccc2)nc(-c2ccccn2)n1)c1ccccc1,50%
4,CCOC(=O)c1sc2nc3c(SCC(=O)O)cc(C(=O)c4cc(F)ccc4O)cn3c(=O)c2c1C,65.9%
5,COc1cnc(-c2ccccn2)nc1Sc1ccc(F)cc1,53.8%
6,O=C(NC1(O)C(=O)c2ccccc2C1=O)c1ccc(C(F)(F)F)cc1,8.58% (inactive)
7,CN1CCN(C(c2ccccn2)c2cc(Cl)c3cccnc3c2O)CC1 (centres undefined),69.7%
8,COc1cnc(-c2ccccn2)nc1Oc1cccc(Cl)c1,46.4%
9,Oc1ccc(/C=N/Nc2cc(N3CCOCC3)nc(N3CCOCC3)n2)c(O)c1,7.02% (inactive)
10,Cc1ccc(-n2nc(C(=O)O)cc2-c2ccc(Cl)cc2)cc1,54.8%
11,O=C1CCCC2=C1C1(O)C(=O)c3ccccc3C1(O)O2 (centres undefined),3.07% (inactive)
12,c1ccc(Nc2nc(-c3ccccn3)cs2)cc1,62%
13,O=C(Nc1nc(-c2ccccn2)cs1)C1CC(=O)N(c2ccc3c(c2)OCCO3)C1 (centres undefined),42.3%
14,COc1ccc(C(=O)c2nccc3cc(OC)c(OC)cc23)cc1OC,5.53% (inactive)
15,CC(=O)C(C(C)=O)C1(O)C(=O)c2ccccc2C1=O,1.17% (inactive)
16,COc1cnc(-c2ccccn2)nc1Oc1cccc(C(F)(F)F)c1,-4.64% (inactive)
17,COc1ccc(CN2C(=O)Cc3c2nc(N)c2c(N)nc(N4CCCCC4)c(C#N)c32)cc1,-0.66% (inactive)
18,O=C(NC1(O)C(=O)c2ccccc2C1=O)c1ccccc1,-6.67% (inactive)
19,Nc1nc(-c2ccccn2)nc(N)c1Cc1ccc(Cl)cc1Cl,67.1%
20,COc1cc(Br)c(C(=O)c2nccc3cc(OC)c(OC)cc23)cc1OC,-11.4% (inactive)
